Source: patent publication US8835469B2 (Cadila Healthcare Limited, priority 2009, dated 2014)

Tests used:
glucokinase (GK) enzyme = target: T1, glucokinase (GK) enzyme (Homo sapiens, UniProt P35557); test: In-vitro glucokinase (GK) activation assay (coupled with glucose-6-phosphate dehydrogenase, absorbance at 340); assay type: biochemical; settings: glucose 2.5 mM; for activity at 0.1 µM / activity at 1 µM / activity at 5 µM / activity at 10 µM: read-out: % of GK activity wrt DMSO; for EC50: GK enzyme 0.2 units, ATP 1 mM
T1 sequence (P35557 1-465): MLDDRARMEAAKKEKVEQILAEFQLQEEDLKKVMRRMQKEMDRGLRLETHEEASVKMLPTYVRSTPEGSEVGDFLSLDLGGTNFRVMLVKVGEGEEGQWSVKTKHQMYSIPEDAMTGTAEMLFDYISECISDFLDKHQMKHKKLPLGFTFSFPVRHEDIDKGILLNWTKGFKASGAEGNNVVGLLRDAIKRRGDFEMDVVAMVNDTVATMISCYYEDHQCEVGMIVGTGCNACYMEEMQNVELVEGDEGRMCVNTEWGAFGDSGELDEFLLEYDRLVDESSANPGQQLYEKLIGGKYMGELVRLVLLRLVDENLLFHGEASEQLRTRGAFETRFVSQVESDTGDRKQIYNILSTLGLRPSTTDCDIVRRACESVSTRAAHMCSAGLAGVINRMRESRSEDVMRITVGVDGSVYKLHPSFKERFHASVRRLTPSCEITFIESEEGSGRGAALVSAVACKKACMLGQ
Procedure: The compound of the invention was incubated with glucokinase (GK) enzyme (0.2 units) for 10 minutes in assay buffer at 26° C. After incubation, addition of glucose-6-phosphate dehydrogenase (2.5 units), ATP (1 mM) and glucose (2.5 mM). Absorbance is measured at 340 nm for 15 minutes with 10 second interval using UV transparent plate in kinetic mode on Spectramax-190 at 30° C.

Male C57 mice = test: Oral glucose tolerance test (OGTT), overnight fasted; assay type: in vivo; settings: for % change in glucose levels Vs Control: treated at −30 min, oral glucose load 3 g/kg at 0 min; for % change in glucose levels Vs Control, Mean: Mean over the time points, oral glucose load 3 g/kg
Procedure: Effect of Glucokinase Activators (GKAs) of the Present Invention on Glucose Reduction Determined by Oral Glucose Tolerence Test (OGTT):
Male C57 mice, aged 8-10 weeks were fasted overnight and subjected to the treatment of selected GK activator at time denoted as −30 min. At time 0 min, mice were given oral glucose load of 3 g/kg, and the glucose excursion was observed upto 120 min. The percentage change against the change in glucose levels of control are mentioned in the table 2.

SMILES	activity at 0.1 µM (glucokinase (GK) enzyme; 0.1 uM compound) [%]	activity at 1 µM (glucokinase (GK) enzyme; 1 uM compound) [%]	activity at 5 µM (glucokinase (GK) enzyme; 5 uM compound) [%]	activity at 10 µM (glucokinase (GK) enzyme; 10 uM compound) [%]	EC50 (glucokinase (GK) enzyme) [nM]	% of GK activity wrt DMSO (glucokinase (GK) enzyme; 0.1 uM compound) [%]	% of GK activity wrt DMSO (glucokinase (GK) enzyme; 1 uM compound) [%]	% of GK activity wrt DMSO (glucokinase (GK) enzyme; 5 uM compound) [%]	% of GK activity wrt DMSO (glucokinase (GK) enzyme; 10 uM compound) [%]	% change in glucose levels Vs Control (Male C57 mice; 0 min Vs −30 min) [%]	% change in glucose levels Vs Control (Male C57 mice; 30 min Vs −30 min) [%]	% change in glucose levels Vs Control (Male C57 mice; 60 min Vs −30 min) [%]	% change in glucose levels Vs Control (Male C57 mice; 120 min Vs −30 min) [%]	% change in glucose levels Vs Control, Mean (Male C57 mice) [%]
CCOC(=O)Cc1csc(NC(=O)c2cc(Oc3ccc(-c4nnc(C)o4)cc3)cc(OC3CCN(C)C3=O)c2)n1 (centres unmarked) [Example 3]	186	284	312	316	196					−18.8 ± 5.8	−4.1 ± 6.0	−3.9 ± 4.3	−15.8 ± 3.7	−10.6
Cc1nnc(-c2ccc(Oc3cc(OC4CCN(C)C4=O)cc(C(=O)Nc4nc(CC(=O)O)cs4)c3)cc2)o1 (centres unmarked) [Example 4, 2-(2-(3-(4-(5-Methyl-1,3,4-oxadiazol-2-yl)phenoxy)-5-((1-methyl-2-oxopyrrolidin-3-yl)oxy)benzamido)thiazol-4-yl)acetic acid]	148	273	330	322	320					−23.3 ± 3.1	−22.1 ± 6.1	−21.8 ± 5.9	−16.7 ± 5.9	−21.0
Cc1nnc(-c2ccc(Oc3cc(OC4CCN(C)C4=O)cc(C(=O)Nc4nc(-c5ccccc5)cs4)c3)cc2)o1 (centres unmarked) [Example 37, 3-(4-(5-Methyl-1,3,4-oxadiazol-2-yl)phenoxy)-5-((1-methyl-2-oxopyrrolidin-3-yl)oxy)-N-(4-phenylthiazol-2-yl)benzamide]	107	151	290	329						11.9 ± 8.2	−26.5 ± 12.8	−43.5 ± 3.8	−24.9 ± 5.3	−17.0
Cc1nnc(-c2ccc(Oc3cc(O[C@H]4CCN(C)C4=O)cc(C(=O)Nc4ncc(C#N)s4)c3)cc2)o1 [Example 69, (S)-(5-cyanothiazol-2-yl)-3-(4-(5-methyl-1,3,4-oxadiazol-2-yl)phenoxy)-5-((1-methyl-2-oxopyrrolidin-3-yl)oxy)benzamide]						116.7	170.1	249.2	255.3	−58.6 ± 5.6	−91.2 ± 1.3	−84.4 ± 0.9	−72.9 ± 5.6	−75.2
Cc1nnc(-c2ccc(Oc3cc(O[C@@H]4CCN(C)C4=O)cc(C(=O)Nc4nccs4)c3)cc2)o1 [Example 77, (R)-3-(4-(5-methyl-1,3,4-oxadiazol-2-yl)phenoxy)-5-((1-methyl-2-oxopyrrolidin-3-yl)oxy)-N-(thiazol-2-yl)benzamide]	112	141	230	261	356					−4.8 ± 7.5	−15.1 ± 6.6	−13.9 ± 7.3	−22.0 ± 3.3	−11.2

Second part, led by results:

activity at 0.1 µM (glucokinase (GK) enzyme; 0.1 uM compound) [%]	activity at 1 µM (glucokinase (GK) enzyme; 1 uM compound) [%]	activity at 5 µM (glucokinase (GK) enzyme; 5 uM compound) [%]	activity at 10 µM (glucokinase (GK) enzyme; 10 uM compound) [%]	EC50 (glucokinase (GK) enzyme) [nM]	% of GK activity wrt DMSO (glucokinase (GK) enzyme; 0.1 uM compound) [%]	% of GK activity wrt DMSO (glucokinase (GK) enzyme; 1 uM compound) [%]	% of GK activity wrt DMSO (glucokinase (GK) enzyme; 5 uM compound) [%]	% of GK activity wrt DMSO (glucokinase (GK) enzyme; 10 uM compound) [%]	SMILES	% change in glucose levels Vs Control (Male C57 mice; 0 min Vs −30 min) [%]	% change in glucose levels Vs Control (Male C57 mice; 30 min Vs −30 min) [%]	% change in glucose levels Vs Control (Male C57 mice; 60 min Vs −30 min) [%]	% change in glucose levels Vs Control (Male C57 mice; 120 min Vs −30 min) [%]	% change in glucose levels Vs Control, Mean (Male C57 mice) [%]
234	302	320	318	74					Cc1csc(NC(=O)c2cc(Oc3ccc(-c4nnc(C)o4)cc3)cc(OC3CCN(C)C3=O)c2)n1 (centres unmarked) [Example 13, 3-(4-(5-Methyl-1,3,4-oxadiazol-2-yl)phenoxy)-5-(1-methyl-2-oxopyrrolidin-3-yloxy)-N-(4-methylthiazol-2-yl)benzamide]	−38.7 ± 3.5	−34.5 ± 9.3	−48.2 ± 7.5	−60.5 ± 4.5	−45.5
144	238	255	271	34					Cc1nnc(-c2ccc(Oc3cc(O[C@H]4CCN(C)C4=O)cc(C(=O)Nc4nccs4)c3)cc2)o1 [Example 68, (S)-3-(4-(5-Methyl-1,3,4-oxadiazol-2-yl)phenoxy)-5-((1-methyl-2-oxopyrrolidin-3-yl)oxy)-N-(thiazol-2-yl)benzamide]	−46.7 ± 0.8	−25.6 ± 7.2	−51.5 ± 4.9	−58.2 ± 6.7	−46.6
